Source: US20230355690A1, “METHOD OF TREATMENT WITH LACTIC ACID BACTERIA” (UNIVERSITY-INDUSTRY COOPERATION GROUP OF KYUNG HEE …, priority 2017, published 2023)

How the values were obtained:
NF-κB (p-p65/p65) [1] = assay: Inflammation reaction inhibiting effect on macrophage (LPS): NF-κB activation, immunoblotting; type: cell-based; settings: C57BL/6J mouse peritoneal macrophage + LPS; lactic acid bacteria 1×10^4 CFU/ml
Procedure: (§1) A six-week old C57BL/6J male mouse (20-23 g) was purchased from Raonbio Co., Ltd. 2 ml of sterilized 4% thioglycolate was intraperitoneally administered into the mouse, which was then anesthetized in 96 hours later. After that, 8 ml of RPMI 1640 medium was intraperitoneally administered to the mouse. In 5 to 10 minutes later, the RPMI medium (including macrophage) was intraperitoneally extracted again from the mouse, then centrifuged on condition of 1000 rpm for 10 minutes, and then washed twice again with the RPMI 1640 medium. The macrophage was plated into a 24-well plate at 0.5×10^6 cells per well, then cultured for 24 hours, and then unattached cells were removed therefrom. The macrophage culture fluid was treated with a test material, i.e., lactic acid bacteria as well as an inflammation reaction inducer, i.e., lipopolysaccharide (LPS) for 90 minutes or 24 hours, and then supernatant and cells were obtained therefrom. At that time, a treatment concentration of lactic acid bacteria was 1×10^4 CFU/ml. Also, in order to compare the effects of lactic acid bacteria, various prebiotics were used as the test material.
An expression level of TNF-α from said obtained supernatant was measured by means of an ELISA kit. Also, the expression level of p65 (NF-κB), p-p65 (phosphor-NF-κB) and β-actin was measured from said obtained cells by means of an immunoblotting method. Particularly, 50 μg of the supernatant was taken and subjected to electrophoresis in SDS 10% (w/v) polyacrylamide gel for one and half an hour. The electrophoresed sample was transferred onto a nitrocellulose paper on condition of 100 V and 400 mA for one hour and 10 minutes. The nitrocellulose paper, onto which the sample was transferred, was subjected to blocking by means of 5% skim milk for 30 minutes, then washed with PBS-Tween three times for five minutes each, and then subjected to reaction overnight with an addition of primary antibodies (Santa Cruz Biotechnology, the U.S.) at a ratio of 1:100. After that, such paper was washed three times for ten minutes each, and subjected to reaction with the addition of secondary antibodies (Santa Cruz Biotechnology, the U.S.) at a ratio of 1:1000 for one hour and 20 minutes. Then, such paper was washed three times for 15 minutes each, then subjected to fluorescent color formation, then developed, and then the intensity of chromophore band was measured.

NF-κB (p-p65/p65) [2] = assay: Inflammation reaction inhibiting effect on dendritic cells (LPS): NF-κB activation, immunoblotting; type: cell-based; settings: C57BL/6 mouse bone marrow dendritic cells + LPS, 90 minutes; lactic acid bacteria 1×10^4 CFU/ml
Excerpt: (§2) Immune cells were isolated from the bone marrow of a C57BL/6 mouse (male, 20-23 g) by using RPMI 1640 containing 10% FBS, 1% antibiotics, 1% glutamax and 0.1% mercaptoethanol, then treated with RBC lysis buffer, and then washed. Said cells were divided into each well of a 24-well plate, then treated with GM-CSF and IL-4 at a ratio of 1:1000, and then cultured. On a 5th day of culture, the cells were replaced with a new medium, then collected on an 8th day thereof, and then used as dendritic cells. After that, the dendritic cells were plated into a 24-well plate at 0.5×10^6 cells per well, then treated with a test material, i.e., lactic acid bacteria, as well as an inflammation reaction inducer, i.e., lipopolysaccharide (LPS) for 90 minutes or 24 hours, and then supernatant and cells were obtained therefrom. At that time, a treatment concentration of lactic acid bacteria was 1×10^4 CFU/ml. Also, in order to compare the effects of lactic acid bacteria, various prebiotics were used as the test material.
(§3) An expression level of IL-10 and IL-12 was measured from said obtained supernatant by means of an ELISA kit. Also, the expression level of p65 (NF-κB), p-p65 (phosphor-NF-κB) and β-actin was measured from the cells, which have been obtained after being treated with the test material for 90 minutes, by means of the same immunoblotting method as in Example 2.(1) above. The results of testing the inflammation reaction inhibiting effect of lactic acid bacteria on dendritic cells are shown in following tables 8 to 10.

IL-12 = assay: Inflammation reaction inhibiting effect on dendritic cells (LPS): IL-12 expression, ELISA; type: cell-based; settings: C57BL/6 mouse bone marrow dendritic cells + LPS; lactic acid bacteria 1×10^4 CFU/ml
Excerpt: as §2, §3

IL-10 = assay: Inflammation reaction inhibiting effect on dendritic cells (LPS): IL-10 expression, ELISA; type: cell-based; settings: C57BL/6 mouse bone marrow dendritic cells + LPS; lactic acid bacteria 1×10^4 CFU/ml
Excerpt: as §2, §3

Th1 cell = assay: Spleen T cell differentiation into Th1 cells, FACS; type: cell-based; settings: C56BL/6J mouse spleen CD4 T cells; lactic acid bacteria 1×10^5 CFU per well, four days
Procedure: (§4) Particularly, a spleen was isolated from a C56BL/6J mouse, then crushed, then suspended in an RPMI 1640 medium containing 10% FCS, and then CD4 T cells were isolated by using a CD4 T cell isolation kit (MiltenyiBiotec, Bergisch Gladbach, Germany). The isolated CD4 T cells were divided into a 12-well plate at 5×10^5 cells per well. After that, the cells were cultured in each well with an addition of anti-CD3, anti-CD28, IL-2 and IL-12 to induce a differentiation of T cells into Th1 cells; with the addition of anti-CD3, anti-CD28, IL-2 and IL-4 to induce the differentiation of T cells into Th2 cells; with the addition of anti-CD3, anti-CD28, IL-6 and TGF-β to induce the differentiation of T cells into Th17 cells; and with the addition of anti-CD3 and anti-CD28 to induce the differentiation of T cells into Treg cells, and a test material, i.e., lactic acid bacteria were inserted thereinto at 1×10^5 CFU per well, and then cultured for four days. Also, in order to compare the effects of lactic acid bacteria, various prebiotics were used as the test material.
(§5) After that, a differentiation potency of the T cells isolated from the spleen into Th1, Th2, Th17 and Treg cells was measured. Particularly, the cells of culture fluid were stained with anti-FOXp3 or anti-IL-17A antibodies, after which a distribution of Th1, Th2, Th17 and Treg cells was analyzed by means of a FACS (fluorescence-activated cell sorting) device (C6 Flow Cytometer® System, San Jose, CA, USA), wherein results thereof are shown in following tables 11 to 13. In the tables 11 to 13 below, the lactic acid bacteria are shown without species names thereof, and are given strain names assigned by the present inventors.

Th2 cell = assay: Spleen T cell differentiation into Th2 cells, FACS; type: cell-based; settings: C56BL/6J mouse spleen CD4 T cells; lactic acid bacteria 1×10^5 CFU per well, four days
Procedure: as §4, §5

Th17 cell = assay: Spleen T cell differentiation into Th17 cells, FACS; type: cell-based; settings: C56BL/6J mouse spleen CD4 T cells; lactic acid bacteria 1×10^5 CFU per well, four days
Procedure: as §4, §5

Treg cell = assay: Spleen T cell differentiation into Treg cells, FACS; type: cell-based; settings: C56BL/6J mouse spleen CD4 T cells; lactic acid bacteria 1×10^5 CFU per well, four days
Procedure: as §4, §5

TNF-α = assay: Inflammation reaction inhibiting effect on macrophage (LPS): TNF-α expression, ELISA; type: cell-based; settings: C57BL/6J mouse peritoneal macrophage + LPS; lactic acid bacteria 1×10^4 CFU/ml
Procedure: as §1, with “At that time, a treatment concentration of lactic acid bacteria was 1×10^4 CFU/ml. Also, in order to compare the effects of lactic acid bacteria, various prebiotics were used as the test material.” left out
An expression level of TNF-α from said obtained supernatant was measured by means of an ELISA kit. Also, the expression level of p65 (NF-κB), p-p65 (phosphor-NF-κB) and β-actin was measured from said obtained cells by means of an immunoblotting method. […] Then, such paper was washed three times for 15 minutes each, then subjected to fluorescent color formation, then developed, and then the intensity of chromophore band was measured.

[3] = tested on: animal model with induced allergic rhinitis and asthma; assay: Example 6: OVA-induced allergic rhinitis and asthma mice, indicators in serum and BALF (ELISA, FACS); type: in vivo, mouse; settings: oral once daily for five days, Dx 1 mg/kg intraperitoneal
Procedure: Seven week-old BALB/C female mice (21-23 g) were acclimated for one week on condition of a controlled environment with humidity of 50%, temperature of 25° C., and light/dark cycle of 12:12 hours. After that, 20 μg of allergy-inducing ovalbumin (OVA) and 2 mg of aluminum hydroxide (Alum) were suspended into 0.2 ml of phosphate buffered saline (PBS: pH 7.4) and intraperitoneally injected into each of the mice on initial and 14th days of an experiment. Then, 100 μg of the OVA was dissolved in 10 μl of distilled water, and intranasally smeared onto each of the mice to induce allergic rhinitis and asthma therefrom on 26th, 27th and 28th days of the experiment. Meanwhile, a test drug, i.e., lactic acid bacteria were orally administered into each of the mice once daily for a total of five days from 26th to 30th days of the experiment. Also, dexamethasone, which was used as a positive control drug instead of lactic acid bacteria, was intraperitoneally administered at a dose of 1 mg/kg b.w. Further, in case of the mice of a normal group, allergic rhinitis and asthma were not induced therefrom, but only the phosphate buffered saline (PBS: pH 7.4) was orally administered thereinto instead of the OVA and the test drug. Furthermore, in case of the mice of a control group, allergic rhinitis and asthma were induced therefrom, and only the phosphate buffered saline (PBS: pH 7.4) was orally administered thereinto as the test drug. After an end of the experiment, the mice were anesthetized, after which blood, lung tissues and the BALF were collected therefrom. Serum was isolated from the blood collected by means of centrifugation, and used as an assay sample. Indicators related to anti-rhinitis and anti-asthma effects were analyzed from serum, the BALF and lung tissues by using various analysis methods. Each analysis method and indicators analyzed thereby are as follows. • Enzyme-linked immunosorbent assay (ELISA): IL-10, IL-5, IL-6, IL-4, IgE, etc. • FACS (fluorescence-activated cell sorting): Distribution of T cells (Th1: CD4^+/IFN-γ^+; Th2: CD4^+/IL-4^+; Treg: CD4^+/FOXp3^+; Th17: CD4^+/IL-17^+), Distribution of eosinophils (CD11b^+, Siglec-F^+)

Compound | NF-κB activation inhibition rate (p-p65/p65) (NF-κB (p-p65/p65) [1]) | NF-κB activation inhibition rate (p-p65/p65) (NF-κB (p-p65/p65) [2]) | IL-12 expression inhibition rate (IL-12) | IL-10 expression increasing rate (IL-10) | Differentiation inhibition rate Th1 cell (Th1 cell) | Differentiation inhibition rate Th2 cell (Th2 cell) | Differentiation inhibition rate Th17 cell (Th17 cell) | Differentiation increasing rate Treg cell (Treg cell) | TNF-α expression inhibition rate (TNF-α) | Increasing rate Treg cell ([3]; BALF, FACS) | Inhibition rate Eosinophils ([3]; BALF, FACS) | Inhibition rate Th2 cell ([3]; BALF, FACS) | Increasing rate IL-10 ([3]; BALF) | Inhibition rate IL-4 ([3]; BALF) | Inhibition rate IL-5 ([3]; BALF) | Inhibition rate IL-4 ([3]; serum) | Inhibition rate IL-5 ([3]; serum) | Inhibition rate IgE ([3]; serum)
OC[C@H]1O[C@H](O[C@H]2O[C@H](CO)[C@@H](O)[C@H](O)[C@H]2O)[C@H](O)[C@@H](O)[C@@H]1O [Trehalose, trehalose] | + (10-30%) | + (10-30%) | + (10-30%) | + (10-50%) | + (10-30%) | + (10-30%) | + (10-30%) | + (10-50%) | – | – | – | – | – | – | – | – | – | –
OC[C@H]1O[C@@H](O[C@@H]2[C@@H](CO)OC(O)(CO)[C@H]2O)[C@H](O)[C@@H](O)[C@H]1O (mixture of isomers) [Lactulose, lactulose] | + (10-30%) | + (10-30%) | + (10-30%) | − (<10%) | + (10-30%) | ++ (30-60%) | − (<10%) | ++ (50-100%) | – | – | – | – | – | – | – | – | – | –
gelatin | + (10-30%) | + (10-30%) | + (10-30%) | + (10-50%) | + (10-30%) | ++ (30-60%) | + (10-30%) | + (10-50%) | + (10-30%) | – | – | – | – | – | – | – | – | –
cyclodextrin | + (10-30%) | + (10-30%) | + (10-30%) | − (<10%) | ++ (30-60%) | + (10-30%) | ++ (30-60%) | + (10-50%) | – | – | – | – | – | – | – | – | – | –
C[C@@H]1C[C@H]2[C@@H]3CCC4=CC(=O)C=C[C@]4(C)[C@@]3(F)[C@@H](O)C[C@]2(C)[C@@]1(O)C(=O)CO [Dx, dexamethasone] | – | – | – | – | – | – | – | – | – | − (<10%) | +++ (>60%) | +++ (>60%) | ++ (50-100%) | +++ (>60%) | +++ (>60%) | +++ (>60%) | ++ (30-60%) | +++ (>60%)
